Our source for the IC50 values is BindingDB's records for doi:10.7270/Q2GM89G6 (n/a, 1995).

Each structure is given as a SMILES string.

In the assay the target is Protein kinase C gamma type (Rattus norvegicus, UniProt P63319). Nature of the assay: Inhibition of [3H]phorbol-12,13-dibutyrate (PDBu) binding to rat brain protein kinase C gamma regulatory domain.
By IC50 is commonly meant the concentration that inhibits the measured activity by half. Take `CC(C)[C@H]1C(=O)N[C@H](CO)Cc2c[nH]c3cccc(c23)N1C`: the IC50 turned out to be 2.75 µM.
To `Cc1cc2ccc3[nH]cc4c3c2n1[C@@H](C(C)C)C(=O)N[C@H](CO)C4` belongs 10 µM; to `Cc1ccc2[nH]cc3c2c1N(C)[C@@H](C(C)C)C(=O)N[C@H](CO)C3`, greater than 100 µM; to `CC(C)[C@H]1C(=O)N[C@H](CO)Cc2c[nH]c3ccc4c(c23)N1[C@@H](C)C4`, 24 µM.
On to `CC(C)[C@H]1C(=O)N[C@H](CO)Cc2c[nH]c3ccc4c(c23)N1[C@H](C)C4`, for which the IC50 is 1.26 µM.
